# Literature values as cited in patent US11497789B2, “Formulations of vancomycin” (SciDose Pharma LLC, priority 2016, dated 2022).
# Conditions: after reconstitution of the lyophilized product
smiles,measurement,value
CN[C@H](CC(C)C)C(=O)N[C@H]1C(=O)N[C@@H](CC(N)=O)C(=O)N[C@H]2C(=O)N[C@H]3C(=O)N[C@H](C(=O)N[C@H](C(=O)O)c4cc(O)cc(O)c4-c4cc3ccc4O)[C@H](O)c3ccc(c(Cl)c3)Oc3cc2cc(c3O[C@@H]2O[C@H](CO)[C@@H](O)[C@H](O)[C@H]2O[C@H]2C[C@](C)(N)[C@H](O)[C@H](C)O2)Oc2ccc(cc2Cl)[C@H]1O [Vancomycin],time stable in water after reconstitution,approximately 24 hours
